“Also recorded” adds a separate entry of the source.
Tested on: facial acne
Experiment: Topical treatment of facial acne in patients (case examples 1-3)
Format: in vivo, human
Settings: patient history: OTC benzoyl peroxide gels and washes tried before the formulation
Text: In this example, a person visits a healthcare professional and complains of facial acne that has been persistent for the past three years. They describe sporadic facial breakouts that began gradually, varied in severity and never completely cleared. They explain that the breakouts contribute to feelings of low self-esteem.
The healthcare professional administers the formulation of erythritol and zinc to the patient. As detailed in Table 2, the formulation includes erythritol (3.75%) and zinc chloride (1.25%). The formulation allows for effective transdermal administration of the zinc chloride-erythritol mixture which can prevent or ameliorate bacterial growth at or near skin pores and hair follicles.
The patient is also advised to continue daily use of an OTC facial wash. After washing and rinsing the face, the patient applies the formulation to the entire face. After five to ten minutes, the face can be rinsed with water. The routine is repeated each day (i.e., twice per day). Within ten days, the acne is resolved by about 80% (i.e., about 80% of the acne is gone). The comedones, papules and pustules are less apparent and only visible at close proximity. The patient resumes twice daily use of the formulation. Within two weeks the signs/symptoms of acne are resolved by about 95%. The patient has a clear complexion. […]

Q: With `O=C(OOC(=O)c1ccccc1)c1ccccc1` [benzoyl peroxide] as the molecule, how does the “improvement of facial acne” value read?
A: Its value is “without improvement; also recorded: minimal or no significant improvement”.
